Data from EP3046573B1, “AMYLIN ANALOGUES” (Zealand Pharma A/S, priority 2013, dated 2015).
pEC50: −log10 of the molar value. Numbered stars: 1 amine (or outer) side, 2 acyl side, 3 side chain; on linkers, the order of the positions; unused ones are H or OH. Bridge positions count the residues as written; N and C are the ends. Square brackets hold non-standard residues; d marks the D form. Peptide text beside a SMILES is read from it. * marks the point of attachment. C20 diacid = O=C(O)CCCCCCCCCCCCCCCCCCC(=O)*; γGlu = O=C(O)[C@H](CCC(=O)[*:2])N[*:1]; NMeY = CN[C@@H](Cc1ccc(O)cc1)C(=O)O; NMeI = CC[C@H](C)[C@H](NC)C(=O)O; Sar = CNCC(=O)O

What was measured:
[1] = target: T1, human calcitonin receptor (hCTR2) (Homo sapiens, UniProt P30988); assay: hCTR2 assay: induction of cAMP (AlphaScreen cAMP Assay kit) in COS7 cells expressing hCTR2; type: cell-based
T1 construct: expressed in transfected cells
T1 sequence (P30988 25-474): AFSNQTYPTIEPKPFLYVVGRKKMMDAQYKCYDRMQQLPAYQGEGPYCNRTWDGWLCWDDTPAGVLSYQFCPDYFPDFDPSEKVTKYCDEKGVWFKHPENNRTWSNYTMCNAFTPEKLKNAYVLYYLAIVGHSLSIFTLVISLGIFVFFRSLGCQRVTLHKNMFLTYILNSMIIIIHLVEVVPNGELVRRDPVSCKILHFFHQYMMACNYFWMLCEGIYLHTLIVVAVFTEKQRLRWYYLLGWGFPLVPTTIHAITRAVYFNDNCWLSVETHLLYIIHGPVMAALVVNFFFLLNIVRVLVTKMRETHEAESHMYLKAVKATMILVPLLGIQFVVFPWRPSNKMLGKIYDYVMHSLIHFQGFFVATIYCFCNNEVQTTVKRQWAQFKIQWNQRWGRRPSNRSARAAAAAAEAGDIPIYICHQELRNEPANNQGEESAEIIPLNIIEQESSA
In short: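 Cells were seeded one day ahead, washed, then exposed to rising peptide concentrations for 15 min at 37° C in the presence of 100 µM IBMX. After lysis for 10 min at room temperature, cAMP was quantified by AlphaScreen and EC50 values derived by 4PL fitting.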

[2] = Assessment of physical stability: fibril formation detected with Thioflavin T (ThT), lag-time; type: physicochemical; conditions: 1 mg/ml peptide, 40 µM ThT, FND = Fibrillation not detected; for Fibrillation lag time (hours) pH 4.0 (Ac): 50 mM acetate buffer pH 4.0, 96 hours at 40°C; for Fibrillation lag time (hours) pH 7.0 (Ph): 50 mM phosphate buffer pH 7.0, 96 hours at 40°C
Protocol: Solutions containing (i) 1 mg/ml of test peptide, 40 µM ThT and 50 mM phosphate (Ph) buffer (pH 7.0), (ii) 1 mg/ml of test peptide, 40 µM ThT and 50 mM histidine (His) buffer (pH 7.0), and (iii) 1 mg/ml of test peptide, 40 µM ThT and 50 mM acetate (Ac) buffer (pH 4.0), were loaded in a 96-well black fluorescence plate (clear bottom) in triplicate. Data were collected at fixed intervals of 10 min, each preceded by 300 s of automixing (agitation), over a period of 96 hours at 40° C. Physical stability, expressed as lag-time of fibril formation (in hours), was defined as the intersection between two linear regressions representing the initial stable phase and the growth phase.

Sprague Dawley (SD) rats = assay: Acute food intake and body weight in normal Sprague Dawley rats; type: in vivo; conditions: vehicle-corrected, dose 30 nmol/kg sc, once
Protocol: Sprague Dawley (SD) rats were obtained from Taconic A/S, Denmark. The animals arrived at least 7 days before the study start to allow acclimatization to experimental conditions. From arrival and throughout the study, the rats were housed in groups of 2 (n = 2) in a light-, temperature- and humidity-controlled room (reversed 12/12 h light/dark cycle: lights turned off during day-time and on during night-time; temperature 20-22°C; relative humidity 50-80%). Animals had access ad libitum to food (Altromin™ 1324, Brogaarden A/S, Gentofte, Denmark) and water (domestic quality tap water with citric acid added to pH ∼ 3.6) during the entire study. Stratification of rats was based on body weight (BW) on a cage-by-cage basis; mean BWs per cage were used as the basis for pairing four cages together in a group (n = 8 per group). A vehicle group and positive control group were included in each set of tests. Rats were dosed subcutaneously (sc) once in the morning immediately before turning off the lights, using a body weight-corrected dose of peptide (30 nmol/kg). Dosing volume was 5 ml/kg. Food intake was recorded manually at t = 0 (pre-dose) and at t = 4, 7, 10, 24, 48, 72 and 96 hours after dosing. Body weight was measured daily.
Statistical analyses on body weight were performed using GraphPad™ Prism version 5. The measured parameters were compared using unpaired t tests. Differences were considered statistically significant at p < 0.05. Data are means ± SEM; n =8.

[3] = Solubility assessment (turbidity absorbance at 325 nm); type: physicochemical; conditions: stock 2 mg/ml diluted 1:1, ambient temperature (typically 25°C), n=1; for Solubility, Acetate buffer pH 4: 100 mM acetate buffer pH 4.0; for Solubility, Acetate buffer pH 5: 100 mM acetate buffer pH 5.0; for Solubility, Histidine buffer pH 6: 100 mM histidine buffer pH 6.0; for Solubility, Histidine buffer pH 7: 100 mM histidine buffer pH 7.0; for Solubility, Phosphate buffer pH 6: 100 mM phosphate buffer pH 6.0; for Solubility, Phosphate buffer pH 7: 100 mM phosphate buffer pH 7.0; for Solubility, Phosphate buffer pH 7.5: 100 mM phosphate buffer pH7.5
In short: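 Turbidimetric screen across pH 4.0–7.5 in 100 mM acetate, histidine and phosphate buffers. A 2 mg/ml peptide stock (pH 2.5) was diluted 1:1 into each, then A325 measured at ambient temperature; values ≤ 0.02 AU denoted solubility of 1 mg/ml or more.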

[4] = target: T2, human amylin receptor 3 (hAMYR3) consisting of hCTR2 co-expressed with human Receptor Activity Modifying Protein 3 (hRAMP3) (Homo sapiens, UniProt O60896+P30988); assay: hAMYR3 assay: induction of cAMP (AlphaScreen cAMP Assay kit) in COS7 cells expressing hAMYR3; type: cell-based; conditions: cAMP induction in COS7 cells expressing hAMYR3; average of a minimum of 3 determinations; read-out: hAMY R3 EC50
T2 construct: expressed in transfected cells
T2 sequence (P30988 25-474): T1 sequence (P30988 25-474)
T2 sequence (O60896 24-148 partner): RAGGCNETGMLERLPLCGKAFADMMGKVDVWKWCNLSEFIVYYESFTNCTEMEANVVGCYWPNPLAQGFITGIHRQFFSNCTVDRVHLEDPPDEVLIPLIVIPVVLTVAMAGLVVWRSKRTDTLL
In short: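 cAMP accumulation read by AlphaScreen in lysates of RAMP-naive COS7 cells stably transfected with hCTR2 plus hRAMP3. Cells exposed to peptide dilutions for 15 min, 37° C, with 100 µM IBMX; 4PL fitting gave EC50 and efficacy relative to pramlintide.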

Row | Compound | pEC50 [1] | Fibrillation lag time (hours) pH 4.0 (Ac) [2] | Fibrillation lag time (hours) pH 7.0 (His) ([2]; 50 mM histidine buffer pH 7.0, 96 hours at 40°C) [hours] | Fibrillation lag time (hours) pH 7.0 (Ph) [2] | Food intake inhibition (%) after 48 hours (Sprague Dawley (SD) rats; 48 hours) [%] | Body weight loss (%) after 96 hours (Sprague Dawley (SD) rats; mean ± SEM, 96 hours, n = 8) [%] | Solubility, Acetate buffer pH 4 [3] | Solubility, Acetate buffer pH 5 [3] | Solubility, Histidine buffer pH 6 [3] | Solubility, Histidine buffer pH 7 [3] | Solubility, Phosphate buffer pH 6 [3] | Solubility, Phosphate buffer pH 7 [3] | Solubility, Phosphate buffer pH 7.5 [3] | pEC50 [4]
1 | CC[C@H](C)[C@@H](C(=O)N[C@@H](CC(C)C)C(=O)N[C@@H](CO)C(=O)N[C@@H](CO)C(=O)N[C@H](C(=O)N[C@@H](CC(N)=O)C(=O)N[C@H](C(=O)NCC(=O)N[C@@H](CO)C(=O)N[C@@H](CC(N)=O)C(=O)N[C@H](C(=O)N(C)[C@@H](Cc1ccc(O)cc1)C(N)=O)[C@@H](C)O)C(C)C)[C@@H](C)O)N(C)C(=O)[C@H](C)NC(=O)CN(C)C(=O)[C@H](Cc1ccccc1)NC(=O)[C@H](CC(N)=O)NC(=O)[C@H](CC(N)=O)NC(=O)[C@H](CO)NC(=O)[C@H](CO)NC(=O)[C@H](Cc1c[nH]cn1)NC(=O)[C@H](Cc1c[nH]cn1)NC(=O)[C@H](CC(C)C)NC(=O)[C@H](Cc1ccccc1)NC(=O)[C@H](CCC(=O)O)NC(=O)[C@H](C)NC(=O)[C@H](CC(C)C)NC(=O)[C@H](CCCNC(=N)N)NC(=O)[C@H](CCC(N)=O)NC(=O)[C@@H](NC(=O)[C@H](C)NC(=O)[C@@H]1CSSC[C@H](NC(=O)[C@H](CCCNC(=N)N)NC(=O)CC[C@H](NC(=O)CCCCCCCCCCCCCCCCCCC(=O)O)C(=O)O)C(=O)N[C@@H](CC(N)=O)C(=O)N[C@@H]([C@@H](C)O)C(=O)N[C@@H](C)C(=O)N[C@@H]([C@@H](C)O)C(=O)N1)[C@@H](C)O [Compound 61, [19CD]-isoGlu-RC()NTATC()ATQRLAEFLHHSSNNF-Gly(Me)-A-Ile(Me)-LSSTNVGSNT-Tyr(Me)-NH2] ({C20 diacid-γGlu}-RCNTATCATQRLAEFLHHSSNNF[Sar]A[NMeI]LSSTNVGSNT[NMeY]-NH2; disulfide 2-7) | 9.52 | FND | 3 | 3 hours | 24 | 1 ± 1.6 | SS (SS indicates solubility ≥ 1mg/ml) | SS (SS indicates solubility ≥ 1mg/ml) | II (II indicates solubility ≤ 1 mg/ml) | II (II indicates solubility ≤ 1 mg/ml) | II (II indicates solubility ≤ 1 mg/ml) | II (II indicates solubility ≤ 1 mg/ml) | II (II indicates solubility ≤ 1 mg/ml) | –
2 | CC[C@H](C)[C@@H](C(=O)N[C@@H](CC(C)C)C(=O)N1CCC[C@H]1C(=O)N1CCC[C@H]1C(=O)N[C@H](C(=O)N[C@@H](CC(N)=O)C(=O)N[C@H](C(=O)NCC(=O)N[C@@H](CO)C(=O)N[C@@H](CC(N)=O)C(=O)N[C@H](C(=O)N1CCC[C@H]1C(N)=O)[C@@H](C)O)C(C)C)[C@@H](C)O)N(C)C(=O)[C@@H]1CCCN1C(=O)CN(C)C(=O)[C@H](Cc1ccccc1)NC(=O)[C@H](CC(N)=O)NC(=O)[C@H](CC(N)=O)NC(=O)[C@H](CO)NC(=O)[C@H](CO)NC(=O)[C@H](Cc1c[nH]cn1)NC(=O)[C@H](Cc1c[nH]cn1)NC(=O)[C@H](CC(C)C)NC(=O)[C@H](Cc1ccccc1)NC(=O)[C@H](CCC(=O)O)NC(=O)[C@H](C)NC(=O)[C@H](CC(C)C)NC(=O)[C@H](CCCNC(=N)N)NC(=O)[C@H](CCC(N)=O)NC(=O)[C@@H](NC(=O)[C@H](C)NC(=O)[C@@H]1CSSC[C@H](NC(=O)[C@H](CCCNC(=N)N)NC(=O)CC[C@H](NC(=O)CCCCCCCCCCCCCCCCCCC(=O)O)C(=O)O)C(=O)N[C@@H](CC(N)=O)C(=O)N[C@@H]([C@@H](C)O)C(=O)N[C@@H](C)C(=O)N[C@@H]([C@@H](C)O)C(=O)N1)[C@@H](C)O [Compound 175, [19CD]-isoGlu-RC()NTATC()ATQRLAEFLHHSSNNF-Gly(Me)-P-Ile(Me)-LPPTNVGSNTP-NH2] ({C20 diacid-γGlu}-RCNTATCATQRLAEFLHHSSNNF[Sar]P[NMeI]LPPTNVGSNTP-NH2; disulfide 2-7) | 9.70 | FND | – | FND | – | – | SS (SS indicates solubility ≥ 1mg/ml) | SS (SS indicates solubility ≥ 1mg/ml) | SS (SS indicates solubility ≥ 1mg/ml) | SS (SS indicates solubility ≥ 1mg/ml) | SS (SS indicates solubility ≥ 1mg/ml) | SS (SS indicates solubility ≥ 1mg/ml) | II (II indicates solubility ≤ 1 mg/ml) | 9.70
